pEC50, pIC50: −log10 of the molar value.

The assay has as its target T1, integrin α4β7 on α4β7+ memory T helper cells (Homo sapiens, UniProt P13612+P26010).
T1 construct: endogenous in cells
T1 sequence (P13612 34-1032): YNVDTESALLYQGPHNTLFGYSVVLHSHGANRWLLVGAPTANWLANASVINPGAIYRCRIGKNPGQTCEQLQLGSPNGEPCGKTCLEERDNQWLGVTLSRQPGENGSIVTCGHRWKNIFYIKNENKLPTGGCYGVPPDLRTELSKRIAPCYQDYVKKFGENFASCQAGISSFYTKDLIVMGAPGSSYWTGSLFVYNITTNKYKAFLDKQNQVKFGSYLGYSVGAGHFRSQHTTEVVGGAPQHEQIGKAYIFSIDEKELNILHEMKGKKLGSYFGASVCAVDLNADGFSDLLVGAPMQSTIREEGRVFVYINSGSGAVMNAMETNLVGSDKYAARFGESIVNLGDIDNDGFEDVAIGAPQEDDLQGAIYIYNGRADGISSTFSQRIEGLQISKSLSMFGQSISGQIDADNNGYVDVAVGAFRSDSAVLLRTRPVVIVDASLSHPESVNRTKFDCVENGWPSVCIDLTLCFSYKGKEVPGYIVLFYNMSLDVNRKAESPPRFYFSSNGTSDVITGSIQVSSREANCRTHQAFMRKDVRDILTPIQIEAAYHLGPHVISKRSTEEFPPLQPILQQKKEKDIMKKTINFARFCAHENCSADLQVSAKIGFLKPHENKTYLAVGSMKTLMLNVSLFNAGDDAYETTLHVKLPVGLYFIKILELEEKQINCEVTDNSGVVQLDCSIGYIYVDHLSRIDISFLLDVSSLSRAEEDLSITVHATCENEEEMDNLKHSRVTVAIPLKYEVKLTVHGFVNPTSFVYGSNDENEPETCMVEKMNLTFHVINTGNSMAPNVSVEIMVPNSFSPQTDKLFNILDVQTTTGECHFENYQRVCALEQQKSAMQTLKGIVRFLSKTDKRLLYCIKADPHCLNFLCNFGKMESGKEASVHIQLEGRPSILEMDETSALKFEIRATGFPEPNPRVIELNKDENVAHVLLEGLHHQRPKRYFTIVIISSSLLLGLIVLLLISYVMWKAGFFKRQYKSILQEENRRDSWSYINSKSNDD
T1 sequence (P26010 20-798): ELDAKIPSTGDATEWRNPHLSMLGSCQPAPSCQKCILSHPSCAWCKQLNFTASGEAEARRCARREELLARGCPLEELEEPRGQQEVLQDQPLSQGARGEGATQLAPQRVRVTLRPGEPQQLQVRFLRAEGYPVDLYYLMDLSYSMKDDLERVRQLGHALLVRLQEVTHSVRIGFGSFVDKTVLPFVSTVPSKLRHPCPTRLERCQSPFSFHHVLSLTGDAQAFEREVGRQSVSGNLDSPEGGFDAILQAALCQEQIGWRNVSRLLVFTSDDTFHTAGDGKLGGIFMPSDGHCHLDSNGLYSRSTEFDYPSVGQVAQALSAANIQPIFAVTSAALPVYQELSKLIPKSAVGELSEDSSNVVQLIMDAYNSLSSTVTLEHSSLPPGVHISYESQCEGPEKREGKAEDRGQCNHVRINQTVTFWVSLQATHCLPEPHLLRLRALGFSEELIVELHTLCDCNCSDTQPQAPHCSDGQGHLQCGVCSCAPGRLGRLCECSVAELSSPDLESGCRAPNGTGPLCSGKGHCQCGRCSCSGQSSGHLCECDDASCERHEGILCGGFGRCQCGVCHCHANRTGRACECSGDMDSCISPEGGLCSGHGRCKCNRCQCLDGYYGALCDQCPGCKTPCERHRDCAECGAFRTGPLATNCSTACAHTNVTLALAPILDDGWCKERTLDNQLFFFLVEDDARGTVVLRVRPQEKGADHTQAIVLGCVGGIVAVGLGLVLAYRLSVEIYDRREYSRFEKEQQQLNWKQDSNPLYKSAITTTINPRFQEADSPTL
The assay can be described thus: MAdCAM-1 competition / receptor occupancy assay in human whole blood, α4β7-positive Th memory cells. To be noted: human whole blood; for pIC50: inhibition of MAdCAM-1 binding to α4β7-positive Th memory cells, FACS, read-out: MADCAM FACS α4β7 Th mem. The class given is cell-based. The method, boiled down:
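Human heparinised whole blood; saturating biotinylated rhMAdCAM-1-Fc or rhVCAM-1-Fc bound 1 h at RT, stained in buffer with 4 mM MnCl2, detected by streptavidin-APC flow cytometry on gated CD45+CD3+CD4+CD45RO+CD49d+ β7+ or β7-lo cells. Occupancy = 100−((% ligand-positive cells with compound/% ligand-positive cells DMSO)*100).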

As to `CC(C)C[C@@H]1NC(=O)c2ccc(-c3ccc(N4CCN(C(=O)c5ccc(C(=O)N6CCN(c7ccc(-c8ccc9cc8CNC(=O)[C@@H]8CCCN8[C@H](C(=O)NC(C)(C)C)[C@H](C)NC(=O)[C@H]([C@@H](C)O)NC(=O)[C@H](CC(=O)O)NC(=O)[C@H](CC(C)C)NC9=O)cc7)CC6)s5)CC4)cc3)c(c2)CNC(=O)[C@@H]2CCCN2[C@H](C(=O)NC(C)(C)C)[C@H](C)NC(=O)[C@H]([C@@H](C)O)NC(=O)[C@H](CC(=O)O)NC1=O` [Compound 470], the pIC50 is 7.09.

`CC(C)C[C@@H]1NC(=O)c2ccc(-c3ccc(N4CCN(C(=O)c5ccc(-c6ccc(C(=O)N7CCN(c8ccc(-c9ccc%10cc9CNC(=O)[C@@H]9CCCN9[C@H](C(=O)NC(C)(C)C)[C@H](C)NC(=O)[C@H]([C@@H](C)O)NC(=O)[C@H](CC(=O)O)NC(=O)[C@H](CC(C)C)NC%10=O)cc8)CC7)cc6)cc5)CC4)cc3)c(c2)CNC(=O)[C@@H]2CCCN2[C@H](C(=O)NC(C)(C)C)[C@H](C)NC(=O)[C@H]([C@@H](C)O)NC(=O)[C@H](CC(=O)O)NC1=O` [Compound 474]: the pIC50 is 7.13. The same measure, in the same setting: for `CC(C)C[C@@H]1NC(=O)c2ccc(-c3ccc(N4CCN(C(=O)c5cc(F)ccc5-c5ccc(F)cc5C(=O)N5CCN(c6ccc(-c7ccc8cc7CNC(=O)[C@@H]7CCCN7[C@H](C(=O)NC(C)(C)C)[C@H](C)NC(=O)[C@H]([C@@H](C)O)NC(=O)[C@H](CC(=O)O)NC(=O)[C@H](CC(C)C)NC8=O)cc6)CC5)CC4)cc3)c(c2)CNC(=O)[C@@H]2CCCN2[C@H](C(=O)NC(C)(C)C)[C@H](C)NC(=O)[C@H]([C@@H](C)O)NC(=O)[C@H](CC(=O)O)NC1=O` [Compound 475] the value was 7.13. In the case of `CC(C)C[C@@H]1NC(=O)c2ccc(-c3ccc(N4CCN(CC(=O)N5CCN(c6ccc(-c7ccc8cc7CNC(=O)[C@@H]7CCCN7[C@H](C(=O)NC(C)(C)C)[C@H](C)NC(=O)[C@H]([C@@H](C)O)NC(=O)[C@H](CC(=O)O)NC(=O)[C@H](CC(C)C)NC8=O)cc6)CC5)CC4)cc3)c(c2)CNC(=O)[C@@H]2CCCN2[C@H](C(=O)NC(C)(C)C)[C@H](C)NC(=O)[C@H]([C@@H](C)O)NC(=O)[C@H](CC(=O)O)NC1=O` [Compound 481], the pIC50 is 7.17.

`CC(C)C[C@@H]1NC(=O)c2ccc(-c3ccc(N4CCN(CCC(=O)N5CCN(c6ccc(-c7ccc8cc7CNC(=O)[C@@H]7CCCN7[C@H](C(=O)NC(C)(C)C)[C@H](C)NC(=O)[C@H]([C@@H](C)O)NC(=O)[C@H](CC(=O)O)NC(=O)[C@H](CC(C)C)NC8=O)cc6)CC5)CC4)cc3)c(c2)CNC(=O)[C@@H]2CCCN2[C@H](C(=O)NC(C)(C)C)[C@H](C)NC(=O)[C@H]([C@@H](C)O)NC(=O)[C@H](CC(=O)O)NC1=O` [Compound 482]: the pIC50 was 7.52.

For `CC(C)C[C@@H]1NC(=O)c2ccc(-c3ccc(N4CCN(C(=O)CCC(=O)N5CCN(c6ccc(-c7ccc8cc7CNC(=O)[C@@H]7CCCN7[C@H](C(=O)NC(C)(C)C)[C@H](C)NC(=O)[C@H]([C@@H](C)O)NC(=O)[C@H](CC(=O)O)NC(=O)[C@H](CC(C)C)NC8=O)cc6)CC5)CC4)cc3)c(c2)CNC(=O)[C@@H]2CCCN2[C@H](C(=O)NC(C)(C)C)[C@H](C)NC(=O)[C@H]([C@@H](C)O)NC(=O)[C@H](CC(=O)O)NC1=O` [Compound 484], the pIC50 was 7.35.

For `CC(C)C[C@@H]1NC(=O)c2ccc(-c3ccc(N4CCN(C(=O)C[C@@H](N)C(=O)N5CCN(c6ccc(-c7ccc8cc7CNC(=O)[C@@H]7CCCN7[C@H](C(=O)NC(C)(C)C)[C@H](C)NC(=O)[C@H]([C@@H](C)O)NC(=O)[C@H](CC(=O)O)NC(=O)[C@H](CC(C)C)NC8=O)cc6)CC5)CC4)cc3)c(c2)CNC(=O)[C@@H]2CCCN2[C@H](C(=O)NC(C)(C)C)[C@H](C)NC(=O)[C@H]([C@@H](C)O)NC(=O)[C@H](CC(=O)O)NC1=O` [Compound 493], the pIC50 is 7.03.

Consider `CC(C)C[C@@H]1NC(=O)c2ccc(-c3ccc(N4CCN(C(=O)CC[C@H](N)C(=O)N5CCN(c6ccc(-c7ccc8cc7CNC(=O)[C@@H]7CCCN7[C@H](C(=O)NC(C)(C)C)[C@H](C)NC(=O)[C@H]([C@@H](C)O)NC(=O)[C@H](CC(=O)O)NC(=O)[C@H](CC(C)C)NC8=O)cc6)CC5)CC4)cc3)c(c2)CNC(=O)[C@@H]2CCCN2[C@H](C(=O)NC(C)(C)C)[C@H](C)NC(=O)[C@H]([C@@H](C)O)NC(=O)[C@H](CC(=O)O)NC1=O` [Compound 494], for which the pIC50 is 6.89. In the case of `CC(C)C[C@@H]1NC(=O)c2ccc(-c3ccc(N4CCN(Cc5cccc(CN6CCN(c7ccc(-c8ccc9cc8CNC(=O)[C@@H]8CCCN8[C@H](C(=O)NC(C)(C)C)[C@H](C)NC(=O)[C@H]([C@@H](C)O)NC(=O)[C@H](CC(=O)O)NC(=O)[C@H](CC(C)C)NC9=O)cc7)CC6)c5)CC4)cc3)c(c2)CNC(=O)[C@@H]2CCCN2[C@H](C(=O)NC(C)(C)C)[C@H](C)NC(=O)[C@H]([C@@H](C)O)NC(=O)[C@H](CC(=O)O)NC1=O` [Compound 499], the pIC50 was 7.39. For the compound `CC(C)C[C@@H]1NC(=O)c2ccc(-c3ccc(N4CCN(Cc5ccc(CN6CCN(c7ccc(-c8ccc9cc8CNC(=O)[C@@H]8CCCN8[C@H](C(=O)NC(C)(C)C)[C@H](C)NC(=O)[C@H]([C@@H](C)O)NC(=O)[C@H](CC(=O)O)NC(=O)[C@H](CC(C)C)NC9=O)cc7)CC6)cc5)CC4)cc3)c(c2)CNC(=O)[C@@H]2CCCN2[C@H](C(=O)NC(C)(C)C)[C@H](C)NC(=O)[C@H]([C@@H](C)O)NC(=O)[C@H](CC(=O)O)NC1=O` [Compound 500], the pIC50 is 7.26. On to `CC(C)C[C@@H]1NC(=O)c2ccc(-c3ccc(N4CCN(C(=O)CCOCCOCCOCCOCCOCCOCCOCCOCCOCCOCCC(=O)N5CCN(c6ccc(-c7ccc8cc7CNC(=O)[C@@H]7CCCN7[C@H](C(=O)NC(C)(C)C)[C@H](C)NC(=O)[C@H]([C@@H](C)O)NC(=O)[C@H](CC(=O)O)NC(=O)[C@H](CC(C)C)NC8=O)cc6)CC5)CC4)cc3)c(c2)CNC(=O)[C@@H]2CCCN2[C@H](C(=O)NC(C)(C)C)[C@H](C)NC(=O)[C@H]([C@@H](C)O)NC(=O)[C@H](CC(=O)O)NC1=O` [Compound 511], for which the pIC50 was 6.74. By pEC50 is commonly meant the EC50 on a negative log10 scale, so that one unit is a factor of ten. Regarding `CC(C)C[C@@H]1NC(=O)c2ccc(-c3ccc(N4CCN(C(=O)c5ccccc5-c5ccccc5C(=O)N5CCN(c6ccc(-c7ccc8cc7CNC(=O)[C@@H]7CCCN7[C@H](C(=O)NC(C)(C)C)[C@H](C)NC(=O)[C@H]([C@@H](C)O)NC(=O)[C@H](CC(=O)O)NC(=O)[C@H](CC(C)C)NC8=O)cc6)CC5)CC4)cc3)c(c2)CNC(=O)[C@@H]2CCCN2[C@H](C(=O)NC(C)(C)C)[C@H](C)NC(=O)[C@H]([C@@H](C)O)NC(=O)[C@H](CC(=O)O)NC1=O` [Compound 517], the pIC50 was 7.37. For the same compound, the pEC50 (FIG. 7, read-out: EC50, competition with saturating amount of MAdCAM) was 7.42.

The values are drawn from US11713338B2, “Cyclic peptides multimers targeting α-4-β-7 integrin” (priority 2016, dated 2023).
